# According to patent publication US4820821A, “Novel pyridazinone-imines and their physiologically tolerated addition salts with acids, their preparation and therapeutic agents containing these compounds” (BASF Aktiengesellschaft, priority 1981, dated 1989):
# How the values were obtained:
# [1] = tested on: reserpine-induced hypothermia; assay: Antidepressive action: reserpine antagonism, inhibition of reserpine-induced hypothermia of the mouse; assay type: in vivo, male Swiss mice; conditions: Table 1
# Procedure: Antidepressants effect dose-dependent inhibition of this hypotherma. The test substances are administered orally 60 minutes before the administration of reserpine.
# The dose which effects 50% inhibition of the reserpine-induced hypothermia is determined, as the ED 50%, from the linear regression between log dose (mg/kg) and relative reduction in hypothermia (Δ%).
# blood pressure = assay: Effect on the blood pressure: hypertensive action, pithed rat; assay type: in vivo, male Sprague-Dawley rats; conditions: Table 1, i.v. administration
# Procedure: The measurement of the blood pressure in the carotid artery was carried out by means of Statham transducers. The substance was administered in the jugular vein (as an aqueous solution, 1 ml/kg) or intraperitoneally (as a tragacanth suspension, 2 ml/kg). The ED 20% is determined as the dose which increases the blood pressure by 20%.
# [2] = tested on: reserpine-induced hypothermia / blood pressure; assay: Quotient ED 50% antidepressive action / ED 20% hypertensive action; assay type: in vivo, mouse / rat; conditions: hypertensive test i.v.
# Description: This is evident from the fact that the quotient defined above differs wtih respect to the comparative compounds. […] This arises, inter alia, from the fact that the hypertensive ED 20 constitutes the denominator of the quotient. It is possible that the unforeseeable selective direction of action is attributable to the special substitution,in accordance with the invention, at the 4-imino group.
structure (smiles),measurement,setting,value
"CCNC(=S)N=c1ccn(-c2ccccc2)nc1 [Example 87, 1,4-dihydro-4-(ethylthiocarbamyl)-imino-1-phenylpyridazine]",ED50,"[1]; Mus musculus, oral administration 60 min before reserpine, dose based on the base, read-out: ED 50% (dose which inhibits the reserpine-induced hypothermia of the mouse by 50%)",2.91 mg/kg
same,"R.A. (relative activity), reserpine antagonism","[1]; amezinium = 1.00, oral",0.25
same,ED20,"blood pressure; Rattus norvegicus, iv, dose based on the base, read-out: ED 20% hypertensive action (dose which increases the blood pressure of the pithed rat by 20%)",> 1 mg/kg
same,"R.A. (relative activity), hypertensive action",blood pressure; amezinium = 1.00,< 0.05
same,Q (quotient ED 50% antidepressive action/ED 20% hypertensive action),[2],< 2.91
